Experimental data published in patent US20080280890A1, “HYDROXYLAMINE COMPOUNDS AND METHODS OF THEIR USE” (priority 2007, published 2008).
Values joined by “and” are separate entries in the source; they are usually repeats but may differ in a detail not shown here. Identical values can stand only once. Like-named read-outs stand apart in the source and are kept apart here.

Tests used:
[1] = tested on: Human neuroblastoma SKN-SH cells, resistant to doxorubicin; experiment: Chemoresistance: cancer cell viability (MTT) in presence or absence of doxorubicin; type: cell-based; conditions: compound 50 ug/mL, MTT
Procedure, shortened: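 Doxorubicin-resistant SKN-SH neuroblastoma cells, selected by stepwise exposure to 10^−9–10^−6 M doxorubicin over 3 months, in DMEM/10% FBS at 37 °C. Treated with doxorubicin alone or with hydroxylamine for 72 h (96 h in one variant). MTT read at 570 nm, survival relative to untreated cells.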

lipid peroxidation = experiment: Lipid peroxidation inhibition (method of Ohkawa); type: biochemical; conditions: for Lipid Peroxidation % Inhibition: 10 uM
[2] = tested on: Angiogenesis in CAM model; experiment: Neovascularization on the CAM (chick chorioallantoic membrane model of angiogenesis); type: in vivo, chicken; conditions: for Percent inhibition of angiogenesis in CAM model at 30 ug: unit assumed; for Percent inhibition of angiogenesis in CAM model at 30 ug / CAM data % Inhibition: 30 ug
Procedure, shortened: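 Chick CAM of 10-day embryos given filter disks pretreated with cortisone acetate and saturated with bFGF (1 μg/ml) or other pro-angiogenic factors. After 24-48 hr, 10-25 ul test agent was injected intravenously or applied topically. After 3 days at 37° C, vessel branch points under each disk were counted at 50× (8 CAMs/group) and converted to % inhibition relative to positive and negative controls.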

TNF-alpha = experiment: LPS induced TNF-alpha inhibition (whole blood / THP-1 cells, ELISA); type: cell-based, human
Protocol: Following incubation with LPS, PBS was added (800 uL) and samples were spun for 10 minutes at 1500 g. […] TNFα protein concentrations were measured using R&D Systems high sensitivity ELISA kit.
The lipid peroxidation assay method of Ohkawa, H.; Ohishi, N.; Yaki, K. Anal. Biochem. 1979, 95, 351 was used to evaluate TNF α. […] Cells were induced with 25 ng/mL LPS for another 3 hrs. Cells were collected and spun at 1500 g for 10 minutes. Supernatant was collected and analyzed for TNFα.
OT-551 was used in both native form and in the form of nanoparticles. […] Other nitrogenous heterocyclic species of the invention are expected to show similar improvement in efficacy when disposed in nanoparticulate form.

[3] = tested on: bFGF (FGF2) stimulated angiogenesis in CAM model; experiment: Angiogenesis in the CAM model using bFGF stimulus; type: in vivo, chicken; conditions: FGF2 (1 ug) + 30 ug injected
Protocol: The number of vessel branch points contained in a circular region equal to the area of a filter disk was counted for each section. Percent inhibition data are expressed as the quotient of the experimental value minus the negative control value divided by the difference between the positive control value and the negative control value. One image was counted in each CAM preparation, and findings from eight CAM preparations were analyzed for each treatment condition. In addition, each experiment was performed three times. The resulting angiogenesis index is the mean ± SEM (Standard Error of Measurement) of new branch points in each set of treatment. Statistical analysis of blood vessel branching patterns are performed by 1-way analysis of variance (ANOVA) comparing experimental with corresponding control groups. Statistical significance differences are assessed at P value of <0.05.
Assessment of Angiogenesis in the CAM Model Using bFGF Stimulus.
The CAM model protocol was modified to include stimulus with bFGF. The effect of injected OT 551 was assayed.

[4] = Ocular permeability and retinal levels after topical administration; type: in vivo

| Molecule | Mean OD (×10^−3), cancer cell viability ([1]; Dox. 10^−6 M present (+)) | Mean OD (×10^−3), cancer cell viability ([1]; Dox. absent (−)) | Lipid Peroxidation % Inhibition (lipid peroxidation) [%] | Percent inhibition of angiogenesis in CAM model at 30 ug [2] [%] | % Lipid Peroxidation inhibition (at 1 uM) (lipid peroxidation) [%] | other results |
| --- | --- | --- | --- | --- | --- | --- |
| CC1(C)CC(NC(=O)N2CCOCC2)CC(C)(C)N1O.Cl [Compound 11, N-(2,2,6,6-tetramethylpiperidin-1-hydroxyl-4-yl)morpholine-4-carboxamide] | 267.25 ×10^−3 | 470.25 ×10^−3 | 82.7 | 71 |  | melting point: 158.1 °C (dec.) |
| CC1(C)CC(=O)CC(C)(C)N1O [Compound 5, 1-Hydroxy-2,2,6,6-tetramethyl-piperidin-4-one] | 245.50 ×10^−3 | 556.50 ×10^−3 | 86.3 |  | 71.0 | inhibition at 10 µM (TNF-alpha; Homo sapiens, THP-1, read-out: Mean Percent Inhibition of TNF-alpha using 5 ng/mL LPS): 66 ± 7%; IC50 (TNF-alpha; Homo sapiens, THP-1, read-out: TNFalpha IC50 (uM)): 22.2 µM |
| CC1(C)CC(OC(=O)C2CC2)CC(C)(C)N1O.Cl [OT-551 HCl] |  |  |  |  |  | % Inhibition ± SEM [3]: 74 ± 4%; Branch pts ± SEM [3]: 87 ± 3; levels in the retina ([4]; after topical administration): good levels; permeability through the cornea ([4]; in vivo): good permeability; Mean Percent Inhibition of TNF-alpha using 5 ng/mL LPS (TNF-alpha; compound 10 uM, 5 ng/mL LPS): 68 ± 6%; CAM data % Inhibition [2]: 75.2 ± 9.7% and 79.6 ± 7.9% and 74 ± 4% |
| CC1(C)COCC(C)(C)N1O.Cl [Compound 20, 3,3,5,5-1-hydroxy-tetramethylmorpholine] | 107.5 ×10^−3 | 515.50 ×10^−3 | 90.2 | 78.6 |  | melting point: 184.6 °C (dec.) |
| Cc1nsnc1OCC1=CC(C)(C)N(O)C1(C)C [Compound 47, 3-((1-hydroxy-2,5-dihydro-2,2,5,5-tetramethyl-1H-pyrrol-3-yl)methoxy)-4-methyl-1,2,5-thiadiazole] | 261.00 ×10^−3 | 1168.33 ×10^−3 |  |  | 60.3 | IC50 (TNF-alpha; Homo sapiens, THP-1, read-out: TNFalpha IC50): ≥ 100 µM |
| CC(C)(C)c1cc(NC(=O)C2CC(C)(C)N(O)C(C)(C)C2)cc(C(C)(C)C)c1O.Cl [Compound 29, N-(3,5-di-tert-butyl-4-hydroxyphenyl)-1-hydroxy-2,2,6,6-tetramethylpiperidine-4-carboxamide] | 105.75 ×10^−3 | 1328.00 ×10^−3 |  | 100 | 92.3 |  |
| CC(=O)NC1CC(C)(C)N(O)C(C)(C)C1.Cl [Compound 2, 1-hydroxy-4-acetamido-2,2,6,6-tetramethylpiperidine] | 249.25 ×10^−3 | 496.33 ×10^−3 | 81.0 | 76 |  | melting point: 180.5 °C (dec.) |
| CC1(C)c2ccc(C(=O)O)cc2C(C)(C)N1O.Cl [Compound 15, 1,1,3,3-tetramethylisoindolin-2-hydroxyl-5-carboxylic acid] |  |  | 94.6 | 71.8 | 88.0 | melting point: 225.5 °C (dec.) |
| Cc1cc(O)c(O)cc1C(=O)NC1CC(C)(C)N(O)C(C)(C)C1.Cl [Compound 27, 4,5-dihydroxy-2-methyl-N-(1-hydroxy-2,2,6,6-tetramethylpiperidin-4-yl)benzamide] | 403.75 ×10^−3 | 1038.33 ×10^−3 |  | 88.3 | 53.4 |  |
| CC1(C)CC(CO)C(C)(C)N1O.Cl (stereo not shown) [Compound 33] | 300.00 ×10^−3 | 1237.50 ×10^−3 |  | 77.8 | 54.9 |  |
| COC1CC(C)(C)N(O)C(C)(C)C1.Cl [Compound 1, 1-hydroxy-4-methoxy-2,2,6,6-tetramethylpiperidine] | 246.50 ×10^−3 | 524.75 ×10^−3 | 90.8 | 89.9 | 74.1 |  |
| CC1(C)C=C(CO)CC(C)(C)N1O.Cl [Compound 25] | 325.00 ×10^−3 | 1137.50 ×10^−3 |  | 62.9 | 42.0 |  |
| 1-hydroxyl-4-(4-(2,2,6,6-tetramethylpiperidin-1-hydroxyl-4-yloxy)-1,2,5-thiadiazol-3-yloxy)-2,2,6,6-tetramethylpiperidine [Compound 14] |  |  | 95.2 | 75.1 | 88.6 | Mean Percent Inhibition of TNF-alpha using 5 ng/mL LPS (TNF-alpha; compound 10 uM, 5 ng/mL LPS): 63 ± 1%; IC50 (TNF-alpha; read-out: TNFalpha IC50): 11.4 µM; CAM data % Inhibition [2]: 95.2% |
| CC1(C)CC(O)CC(C)(C)N1O [TEMPOL-H, 2,2,6,6-tetramethylpiperidine-1,4-diol, reference compound] |  |  |  |  |  | inhibition at 10 µM (TNF-alpha; Homo sapiens, THP-1, compound 10 uM, 5 ng/mL LPS, read-out: Mean Percent Inhibition of TNF-alpha using 5 ng/mL LPS): 74 ± 8%; effect of H2O2 in the CAM model ([2]; H2O2 induced angiogenesis, FIG. 1): dose dependent effect |
| CC1(C)C=C(C(N)=O)C(C)(C)N1O [Compound 23, 2,5-dihydro-2,2,5,5-tetramethyl-1H-pyrrole-3-carboxamide-1-hydroxy] | 416.25 ×10^−3 | 1432.50 ×10^−3 |  | 48.8 |  | IC50 (TNF-alpha; read-out: TNFalpha IC50): 87.4 µM |
| CC1(C)CC(NS(C)(=O)=O)CC(C)(C)N1O [Compound 10, 1-hydroxy-4-methanesulfonamido-2,2,6,6-tetramethylpiperidine] | 250.00 ×10^−3 | 456.00 ×10^−3 | 85.8 | 78.2 |  |  |
| CC1(C)CC(N2CCOCC2)CC(C)(C)N1O.Cl [Compound 3, 4-(2,2,6,6-tetramethylpiperidin-1-hydroxy-4-yl)morpholine] | 289.50 ×10^−3 | 640.25 ×10^−3 | 77.8 | 54.7 |  |  |
| CC1C(O)C(C)C(C)(C)N(O)C1(C)C.Cl (stereo not shown) [Compound 6, 2,2,3,5,6,6-Hexamethyl-piperidine-1,4-diol] | 185.25 ×10^−3 | 367.00 ×10^−3 | 89.0 | 40.4 | 70.5 | melting point: 191.5 °C (dec.) |
